A word on the melting point: it is the temperature, or range, at which the solid turns liquid.

Data set [1] has as its target T1, recombinant HIV integrase (Human immunodeficiency virus type 1 group M subtype B, UniProt P04585).
T1 construct: recombinant HIV integrase
The data set can be described thus: HIV integrase inhibition assay (microtiter plate, biotin donor DNA / digoxigenin target DNA, colorimetric). In kind it is biochemical. Conditions: total inhibitory effect (3′ process reaction and strand transfer reaction), initial concentration 100 μg/mL, class symbol; for inhibition at 100 µg/mL: read-out: IC50 (μg/mL). From the text:
The target compounds 8, 9, 12, 14 were screened against purified HIV IN to determine any potential inhibitory activity. Thus, a synthesized 30 oligonucleotide and a 20 oligonucleotide were used as donor DNA and target DNA, respectively, which were purchased from Shanghai Sangon Biological Engineering Technology & Services Co. Ltd. The donor DNA was biotinylated at the 5′ end (5′ bio-DNA) and immobilized on streptavidin-coated 96-well microtiter plates. To the donor DNA streptavidin-coated 96-well microtiter plate were added test sample, 3' digoxygenin-labeled target DNA (3' dig-DNA) and recombinant HIV integrase and subjected to incubation in optimized condition.
The plate was further washed with phosphate-buffered saline (PBS) containing 0.1% Tween®-20 and anti-digoxigenin-peroxidase (POD, 100 µL) was added to each well. After incubation at 37°C for 60 min, the plate was washed with PBS containing 0.1% Tween®-20. The digoxygenin-labeled products were visualized by adding a POD substrate, tetramethylbenzidine (TMB). The colorimetric reaction was stopped by addition of 0.5 mol/L H2SO4 (100 µL), and the absorbance was measured at 450 nm on a microplate reader. The total inhibitory effect (including inhibiting 3′ process reaction and strand transfer reaction) were obtained by comparing the absorbance of drug group with control group (without test compound).

Data set [2] can be described thus: Mg2+ binding by UV-Vis titration in CH3CN. The format is physicochemical. As to the method: Inspirited by this assumption, preliminary ion binding experiments were also carried out by UV-Vis spectroscopy, using compound 14a as an example. […] As the Mg^2+ concentration (as perchlorate salt) increased, the absorption intensity of the peak at 414 nm first decreased and then the wavelength shifted blue to around 402 nm. […] However, the Mg^2+ induced a blue shift of the absorption curve of compound 14a. Similar behaviors were also observed for other divalent metals, including Mn^2+, Co^2+, Cu^2+, Ca^2+ and Ni^2+ (not shown in Figure 3).
Figure 2 Changes of UV-vis spectra with 14a in CH3CN on addition of 0-16×10^-6 mol·L^-1 of [Mg^2+] at 25 °C. Conditions: [Mg^2+] =2 × 10^-3 M. [14a] = 2 × 10^-5 MBlack: 0×10^-6 mol·L^-1, blue: 2×10^-6 mol·L^-1, red: 4×10^-6 mol·L^-1, navy: 6×10^-6 mol·L^-1, brown: 8×10^-6 mol·L^-1, green: 10×10^-6 mol·L^-1, dark cyan: 12×10^-6 mol·L^-1, brass: 16×10^-6 mol.L^-1.
Figure 3 UV-Vis absorption spectra of free 14a and 14a in the presence of K^+, Na^+ or Mg^2+ ion in CH3CN solution. Conditions: [14a] = 2 × 10^-5 M; [Mg^2+] = [K^+] = [Na^+] = 2×10^-3 M; Black: 14a, blue: Na^+ complex, red: K^+ complex, navy: Mg^2+ complex.

Data set [3] is described as follows: Solubility in water (qualitative remark). The format is physicochemical.

`Cc1ccc(S(=O)(=O)Nc2cc(C(=O)O)c(=O)n3ccccc23)cc1` [8b, 1-p-Methylphenylsulfonamido-4-oxo-4H-quinolizine-3-carboxylic acid] returned a melting point of over 300 °C. Also, in data set [1], the inhibition at 100 µg/mL is under 50%.
On the same counts, the results for `O=C(O)c1cc(NS(=O)(=O)c2ccc([N+](=O)[O-])cc2)c2ccccn2c1=O` [8e, 1-p-Nitrophenylsulfonamido-4-oxo-4H-quinolizine-3-carboxylic acid] are over 300 °C and under 50%.
On the same counts, the results for `O=C(O)c1cc(NS(=O)(=O)c2ccc(Cl)cc2)c2ccccn2c1=O` [8c, 1-p-Chlorophenylsulfonamido-4-oxo-4H-quinolizine-3-carboxylic acid] are over 300 °C and under 50%.
On the same counts, the results for `COc1ccc2[nH]c(-c3cc(C(=O)O)c(=O)n4ccccc34)nc2c1` [14c, 1-(5(6)-Methoxy-1H-benzimidazol-2-yl)-4-oxo-4H-quinolizine-3-carboxylic acid] are over 300 °C and under 50%.
Molecule `O=C(O)c1cc(-c2nc3ccccc3[nH]2)c2ccccn2c1=O` [14a, 1-(1H-Benzimidazol-2-yl)-4-oxo-4H-quinolizine-3-carboxylic acid] displayed a melting point of over 300 °C. For the same molecule, the “change of UV-Vis absorption in the presence of Na+ or K+” value in data set [2] (100-fold equivalent amount of Na+ or K+) was “no obvious change”. The “change of UV-Vis absorption curve upon addition of Mg2+” value in data set [2] ([14a] = 2 × 10^-5 M) is listed as “two-step shift of the absorption curve”. Moreover, in data set [1], the inhibition at 100 µg/mL was under 50%. The solubility in water result in data set [3] is recorded as “low solubility”.
Consider “1-(3,4-Dimethoxystyrylcarboxylamino)-4-oxo-4H-quinolizine-3-carboxylic acid [9b]”, for which the “IC50 (μg/mL)” value in data set [1] is “-^2 (“-” indicates that the HIV-IN inhibitory effect was less than 50% at the initial concentration)”.
In turn, `COc1cc(C(=O)Nc2cc(C(=O)O)c(=O)n3ccccc23)cc(OC)c1OC` [9a, 1-(3,4,5-Trimethoxyphenylcarbonylamino)-4-oxo-4H-quinolizine-3-carboxylic acid] returned a melting point of 280 to 282 °C. Moreover, the inhibition at 100 µg/mL in data set [1] was under 50%.
On the same counts, the results for `O=C(O)c1cc(-c2nc3ccccc3s2)c2ccccn2c1=O` [compound 12, 1-benzothiazol-2-yl-4-oxo-4H-quinolizine-3-carboxylic acid] are over 300 °C and under 50%.
On the same counts, the results for `COc1ccc(S(=O)(=O)Nc2cc(C(=O)O)c(=O)n3ccccc23)cc1` [8d, 1-p-Methoxyphenylsulfonamido-4-oxo-4H-quinolizine-3-carboxylic acid] are over 300 °C and under 50%.
`O=C(O)c1cc(NS(=O)(=O)c2ccccc2)c2ccccn2c1=O` [8a, 1-Phenylsulfonamido-4-oxo-4H-quinolizine-3-carboxylic acid]: the melting point was 245 to 247 °C. In data set [1], the inhibition at 100 µg/mL is under 50%.
In the same order, the values of `O=C(O)c1cc(-c2nc3cc(Cl)ccc3[nH]2)c2ccccn2c1=O` [14b, 1-(5(6)-Chloro-1H-benzimidazol-2-yl)-4-oxo-4H-quinolizine-3-carboxylic acid] are over 300 °C and under 50%.

The values are drawn from PMC6254011, “Design, Synthesis and Anti-HIV Integrase Evaluation of 4-Oxo-4H-quinolizine-3-carboxylic Acid Derivatives” (Molecules, 2009).
